From ChEMBL document CHEMBL1151094, “Benzenepropanoic acids containing chromanone or naphthalenone moieties are potent and orally active leukotriene B4 antagonists” (Bioorg Med Chem Lett, 1994)

Assays:
Cavia porcellus = assay: Percent of control LTB4 -induced bronchoconstriction in guinea pigs before 20 hours pretreatment at 1.0 mg/kg; type: functional
Leukotriene B4 receptor [1] = molecular target: T1, Leukotriene B4 receptor (Homo sapiens, UniProt Q9NPC1+Q15722); assay: Inhibition of leukotriene B4 (LTB4) binding to its receptor on intact human neutrophils
T1 sequence (Q15722 whole entry, looked up): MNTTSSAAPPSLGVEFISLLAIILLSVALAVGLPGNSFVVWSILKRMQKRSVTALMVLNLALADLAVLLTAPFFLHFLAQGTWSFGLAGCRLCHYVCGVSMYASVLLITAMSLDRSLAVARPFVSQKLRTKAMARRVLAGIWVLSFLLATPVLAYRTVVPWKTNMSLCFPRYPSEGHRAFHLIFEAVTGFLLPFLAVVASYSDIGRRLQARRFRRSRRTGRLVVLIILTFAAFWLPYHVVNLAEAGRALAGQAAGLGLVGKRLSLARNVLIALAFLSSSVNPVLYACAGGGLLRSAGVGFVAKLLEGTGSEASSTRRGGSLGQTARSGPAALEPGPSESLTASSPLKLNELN
T1 sequence (Q9NPC1 whole entry, looked up): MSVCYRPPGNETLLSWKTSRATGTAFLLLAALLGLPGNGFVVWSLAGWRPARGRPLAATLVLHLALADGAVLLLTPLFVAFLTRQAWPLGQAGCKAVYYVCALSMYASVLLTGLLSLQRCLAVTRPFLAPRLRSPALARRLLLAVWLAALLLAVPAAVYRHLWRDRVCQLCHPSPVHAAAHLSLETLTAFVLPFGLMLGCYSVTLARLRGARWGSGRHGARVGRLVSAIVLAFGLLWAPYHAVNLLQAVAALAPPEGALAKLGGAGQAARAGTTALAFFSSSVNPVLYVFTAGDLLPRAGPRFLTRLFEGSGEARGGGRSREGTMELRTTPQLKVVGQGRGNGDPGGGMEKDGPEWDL

Leukotriene B4 receptor [2] = molecular target: T1, Leukotriene B4 receptor; assay: Inhibition of LTB4 -induced bronchoconstriction in guinea pigs following 0.1 mg/kg prior to challenge.; type: functional, organism-based; parameters: dose 0.1 mg/kg; scale not given: the % may be the effect or the level left; conditions: Cavia porcellus; target entry is the homologue from another species; at 0.1 mg/kg

Ki (Leukotriene B4 receptor [1]) [nM] | Control (Leukotriene B4 receptor [2]) [%] | Compound | Control (Cavia porcellus) [%]
– | – | CCCc1c(OCCCCCCc2cccc(OCCCCCC(=O)O)c2CCC(=O)O)ccc2c1CCCC2=O | 25
– | – | CCCc1c(OCCCCCCc2cccc(OCCCCCCC(=O)O)c2CCC(=O)O)ccc2c1OCCC2=O | 73
11 | 88 | COc1ccc(/C=C/CCCCOc2ccc(C(=O)c3cccc(C(=O)O)c3)cc2CCC(=O)O)cc1 | –
– | – | CCCc1c(OCCCCCCc2cccc(OCCCC(=O)O)c2CCC(=O)O)ccc2c1CCCC2=O | 19
– | 101 | COc1ccc(/C=C/CCCCOc2cccc(OCCCCC(=O)O)c2CCC(=O)O)cc1 | –
– | – | CCCc1c(OCCCCCCc2cccc(OCCCCCCCC(=O)O)c2CCC(=O)O)ccc2c1OCCC2=O | 27
– | 91 | CCCc1c(OCCCOc2ccc(C(C)=O)c(OC)c2CCC)ccc2c1OC(C(=O)O)CC2 (racemic) | –
1 | 80 | COc1cc(C(=O)N(C(C)C)C(C)C)ccc1OCCCCCOc1ccc(C(=N)N)cc1.O=C(O)/C=C\C(=O)O [MOXILUBANT MALEATE] | –
– | – | CCCc1c(OCCCCCCc2cccc(OCCCCCCCCC(=O)O)c2CCC(=O)O)ccc2c1OCCC2=O | 24
– | – | CC(C)(CCCCOc1cc(-c2ccccc2)cc(-c2ccccc2)n1)c1nnn[nH]1 | 15
– | – | CCCc1c(OCCCCCCc2cccc(OCCCC(=O)O)c2CCC(=O)O)ccc2c1OCCC2=O | 20
– | – | CCCc1c(OCCCCCCc2cccc(OCCCCC(=O)O)c2CCC(=O)O)ccc2c1OCCC2=O | 26
– | – | CCCc1c(OCCCOc2ccc(-c3cscn3)c(OC)c2CC2CC2)ccc2c1OC(C(=O)O)CC2 (configuration not stated) | 36
320 | – | CCCc1c(OCCCCCOc2cc3c(cc2C(C)=O)CCC(C(=O)O)O3)ccc(C(C)=O)c1O (racemic) [ABLUKAST] | –
– | – | CCCc1c(OCCCCCCc2ccc(OCCCC(=O)O)cc2CCC(=O)O)ccc2c1OCCC2=O | 45
